The source of these data is PMC7915185 (Molecules, 2021).

Test [1] has as its target H5N1 (A/Hong Kong/483/97) hemagglutinin (HA) protein (Influenza A virus, UniProt Q77XR4). The format is binding, influenza virus H5N1 (A/Hong Kong/483/97). The note with it: pH 7.4.
Test [2] has as its target T1, H1N1 (A/WSN/1933) hemagglutinin (HA) protein (Influenza A virus, UniProt P03454).
T1 construct: purchased Sino Biological Inc. (Beijing, China)
The test is described as follows: biochemical. The test is classed as binding, influenza virus H1N1 (A/WSN/1933).

The subject of a further test is HA. Conditions: in our previous work; cited from earlier work.

The term Kd denotes a measure of binding affinity in units of concentration. A high value points to lower affinity.

As to `C=C(C)[C@@H]1CC[C@]2(C(=O)O)CC[C@]3(C)[C@H](CC[C@@H]4[C@@]5(C)CC[C@H](O)C(C)(C)[C@@H]5CC[C@]43C)[C@@H]12` [BA, betulinic acid], the “thermodynamic dissociation constant KD” value was “no significant affinity” in test [1] and “no affinity” in test [2] (pH 7.4).

For `CC1(C)[C@@H](O)CC[C@]2(C)[C@H]3C(=O)C=C4[C@@H]5C[C@@](C)(C(=O)O)CC[C@]5(C)CC[C@@]4(C)[C@]3(C)CC[C@@H]12` [GA, glycyrrhetinic acid], the “thermodynamic dissociation constant KD” value in test [1] is recorded as “no significant affinity”. For the same compound, the Kd in test [2] was 584 µM.

In test [2], `CC1(C)CC[C@]2(C(=O)O)CC[C@]3(C)C(=CC[C@@H]4[C@@]5(C)CC[C@H](O)C(C)(C)[C@@H]5CC[C@]43C)[C@@H]2C1` [OA, oleanolic acid] showed a Kd of 31.1 µM.

As to `C=C(C)[C@@H]1CC[C@]2(C(=O)OCCOCCOCCOCCOCCOCCn3cc(CCC(=O)N[C@@H](CC(=O)N[C@@H]4O[C@H](CO)[C@@H](O[C@@H]5O[C@H](CO)[C@@H](O[C@@H]6O[C@H](CO[C@H]7O[C@H](CO)[C@@H](O)[C@H](O)[C@@H]7O[C@@H]7O[C@H](CO)[C@@H](O[C@@H]8O[C@H](CO[C@]9(C(=O)O)C[C@H](O)[C@@H](NC(C)=O)[C@H]([C@H](O)[C@H](O)CO)O9)[C@H](O)[C@H](O)[C@H]8O)[C@H](O)[C@H]7NC(C)=O)[C@@H](O)[C@H](O[C@H]7O[C@H](CO)[C@@H](O)[C@H](O)[C@@H]7O[C@@H]7O[C@H](CO)[C@@H](O[C@@H]8O[C@H](CO[C@]9(C(=O)O)C[C@H](O)[C@@H](NC(C)=O)[C@H]([C@H](O)[C@H](O)CO)O9)[C@H](O)[C@H](O)[C@H]8O)[C@H](O)[C@H]7NC(C)=O)[C@@H]6O)[C@H](O)[C@H]5NC(C)=O)[C@H](O)[C@H]4NC(C)=O)C(=O)O)nn3)CC[C@]3(C)[C@H](CC[C@@H]4[C@@]5(C)CC[C@H](O)C(C)(C)[C@@H]5CC[C@]43C)[C@@H]12` [SCT-Asn-BA], binding in test [2] was put at a Kd of 6.89 µM. `CC(=O)N[C@@H]1[C@@H](O)[C@H](O[C@@H]2O[C@H](CO)[C@@H](O[C@@H]3O[C@H](CO[C@H]4O[C@H](CO)[C@@H](O)[C@H](O)[C@@H]4O[C@@H]4O[C@H](CO)[C@@H](O[C@@H]5O[C@H](CO[C@]6(C(=O)O)C[C@H](O)[C@@H](NC(C)=O)[C@H]([C@H](O)[C@H](O)CO)O6)[C@H](O)[C@H](O)[C@H]5O)[C@H](O)[C@H]4NC(C)=O)[C@@H](O)[C@H](O[C@H]4O[C@H](CO)[C@@H](O)[C@H](O)[C@@H]4O[C@@H]4O[C@H](CO)[C@@H](O[C@@H]5O[C@H](CO[C@]6(C(=O)O)C[C@H](O)[C@@H](NC(C)=O)[C@H]([C@H](O)[C@H](O)CO)O6)[C@H](O)[C@H](O)[C@H]5O)[C@H](O)[C@H]4NC(C)=O)[C@@H]3O)[C@H](O)[C@H]2NC(C)=O)[C@@H](CO)O[C@H]1NC(=O)C[C@H](NC(=O)CCc1cn(CCOCCOCCOCCOCCOCCOC(=O)[C@@]2(C)CC[C@]3(C)CC[C@]4(C)C(=CC(=O)[C@@H]5[C@@]6(C)CC[C@H](O)C(C)(C)[C@@H]6CC[C@]54C)[C@@H]3C2)nn1)C(=O)O` [SCT-Asn-GA] had a Kd in test [2] of 16.4 µM. The same measure, in the same setting: for `CC(=O)N[C@@H]1[C@@H](O)[C@H](O[C@@H]2O[C@H](CO)[C@@H](O[C@@H]3O[C@H](CO[C@H]4O[C@H](CO)[C@@H](O)[C@H](O)[C@@H]4O[C@@H]4O[C@H](CO)[C@@H](O[C@@H]5O[C@H](CO[C@]6(C(=O)O)C[C@H](O)[C@@H](NC(C)=O)[C@H]([C@H](O)[C@H](O)CO)O6)[C@H](O)[C@H](O)[C@H]5O)[C@H](O)[C@H]4NC(C)=O)[C@@H](O)[C@H](O[C@H]4O[C@H](CO)[C@@H](O)[C@H](O)[C@@H]4O[C@@H]4O[C@H](CO)[C@@H](O[C@@H]5O[C@H](CO[C@]6(C(=O)O)C[C@H](O)[C@@H](NC(C)=O)[C@H]([C@H](O)[C@H](O)CO)O6)[C@H](O)[C@H](O)[C@H]5O)[C@H](O)[C@H]4NC(C)=O)[C@@H]3O)[C@H](O)[C@H]2NC(C)=O)[C@@H](CO)O[C@H]1NC(=O)C[C@H](NC(=O)CCc1cn(CCOCCOCCOCCOCCOCCOC(=O)[C@]23CCC(C)(C)C[C@H]2C2=CC[C@@H]4[C@@]5(C)CC[C@H](O)C(C)(C)[C@@H]5CC[C@@]4(C)[C@]2(C)CC3)nn1)C(=O)O` [SCT-Asn-OA] the value was 11.2 µM; for `CC(=O)N[C@@H]1[C@@H](O)[C@H](O[C@@H]2O[C@H](CO)[C@@H](O[C@@H]3O[C@H](CO[C@H]4O[C@H](CO)[C@@H](O)[C@H](O)[C@@H]4O[C@@H]4O[C@H](CO)[C@@H](O[C@@H]5O[C@H](CO[C@]6(C(=O)O)C[C@H](O)[C@@H](NC(C)=O)[C@H]([C@H](O)[C@H](O)CO)O6)[C@H](O)[C@H](O)[C@H]5O)[C@H](O)[C@H]4NC(C)=O)[C@@H](O)[C@H](O[C@H]4O[C@H](CO)[C@@H](O)[C@H](O)[C@@H]4O[C@@H]4O[C@H](CO)[C@@H](O[C@@H]5O[C@H](CO[C@]6(C(=O)O)C[C@H](O)[C@@H](NC(C)=O)[C@H]([C@H](O)[C@H](O)CO)O6)[C@H](O)[C@H](O)[C@H]5O)[C@H](O)[C@H]4NC(C)=O)[C@@H]3O)[C@H](O)[C@H]2NC(C)=O)[C@@H](CO)O[C@H]1NC(=O)C[C@H](NC(=O)CCc1cn(CCOCCOCCOCCOCCOCCOC(=O)[C@]23CC[C@@H](C)[C@H](C)[C@H]2C2=CC[C@@H]4[C@@]5(C)CC[C@H](O)C(C)(C)[C@@H]5CC[C@@]4(C)[C@]2(C)CC3)nn1)C(=O)O` [SCT-Asn-UA], 289 µM. On to `C[C@H]1[C@H](C)CC[C@]2(C(=O)O)CC[C@]3(C)C(=CC[C@@H]4[C@@]5(C)CC[C@H](O)C(C)(C)[C@@H]5CC[C@]43C)[C@H]12` [UA, ursolic acid], for which the “thermodynamic dissociation constant KD” value in test [1] is “no significant affinity”. In test [2], this compound returned a Kd of 137 µM. For Sialylglycopeptide [SGP], the “affinity to HA (SPR)” value in the test with HA is “no affinity”. Moreover, the “thermodynamic dissociation constant KD” value in test [1] is “no affinity”.
